Data reported in US12403132B2, “Methods of treating bone marrow failure syndromes and compositions for use in the same” (The Board of Trustees of the Leland Stanford Junior …, priority 2020, dated 2025).

Legend:
c-Myb [1] = assay: c-Myb protein and phosphorylation by Western blot after p53 activation in Kp53A1 cells; assay type: cell-based, human
c-Myb [2] = assay: NLK kinase and ubiquitination assays with c-Myb as substrate, Kp53A1 cells; assay type: cell-based, human
Source text: FIG. 4. NLK phosphorylation of c-Myb results in ubiquitination and proteasome degradation. Fetal liver CD34+ progenitors transduced with shRNA against luciferase (shLuc) or RPS19 (shRPS19) in conjunction with siRNA against NLK (siNLK) or a non-targeting sequence (NT). Cells were differentiated for 5 days and split into three aliquots. One aliquot was lysed and probed for c-Myb, NLK, RPS19 and GAPDH protein expression by western blot, while the second aliquot was subjected to qRT-PCR to examine c-Myb mRNA expression (a) The third aliquot was analyzed for NLK activity by kinase assay (b—upper) and ubiquitination assay (b—lower). Orange, blue and green bars represent the extent of NLK, Myb and raptor phosphorylation respectively. Values are expressed as a fold relative to activity in controls (shLuc/NT). White, grey and black bars designate the substrates NLK, c-Myb and raptor respectively with values designating the extent of ubiquitination observed of each substrate relative to control. (c and d) Kp53A1 cells alone, or transfected with plasmids expressing NT or siNLK were cultured for 30 h at 37 or 32° C. prior to lysis and western blotting for c-Myb, NLK and GAPDH. Myb mRNA levels were determined by qRT-PCR. (c) and NLK kinase assays and cell ubiquitination assays were performed as above. (e) Kp53A1 cells were cultured at 37 (grey bars) or 32° C. […]

CD235+ erythroblasts [3] = assay: CD235+ erythroid expansion of differentiating human cord blood CD34+ progenitors (shRPS19/shRPL11 DBA models), flow cytometry; assay type: cell-based; settings: RPS19-insufficient progenitors, exogenous TGFβ
CD235+ erythroblasts [4] = assay: as above; assay type: cell-based; settings: control (shLuc), exogenous TGFβ 5 ng/ml
Procedure: FIG. 7. […] (a) Differentiating cord blood CD34+ progenitors were transduced with shRNA against luciferase or RPS19 and treated with inhibitors at working concentrations for TGFβ inhibition every three days. Cells were counted and CD235+ erythroid cells were assessed by flow cytometry after 15 days. (b) Prior to flow cytometry, 5000 cells per group were taken from differentiating cultures for NLK kinase assay. (c) CD34+ progenitors were transduced with shRNA against luciferase or RPS19 and non-targeting or siRNA against NLK. After sorting, samples were split into two groups and either treated with vehicle or SD208 every three days. After 15 days cells were counted and subject to flow cytometry to compare the expansion of maturing CD235+ erythroid (left panel) and CD11b+ myeloid cells (right panel). (d) Cord Blood CD34+ progenitors were transduced with shRNA against luciferase (left panel) or RPS19 (right panel) differentiated in erythroid media for 15 days alone, or in the presence of SB525334 or SD208 at 5 μM. Cells were counted and CD235+ erythroid (D—upper) and CD11b+ myeloid cell (D—lower) percentages were determined by flow cytometry. The number of erythroid or myeloid cells is expressed as a percentage of the number of that lineage with no cytokine or drug treatment.
FIG. 8. […] Human cord blood CD34+ progenitors were transduced with lentivirus co-expressing GFP with shRNA against luciferase (shLuc), RPS19 (shRPS19) or RPL11 (shRPL11). After 36 hours cells GFP+ cells were differentiated in erythroid media in the presence or absence of 5 μM SD208 for 15 days. Cells were counted and assessed for cell surface expression of CD235. (a) The percentage of CD235+ cells was multiplied by the cell count and values were compared as a percentage of untreated controls. (b) Normalizing values relative to untreated RPS19-insufficiency progenitors facilitates direct comparison of erythropoiesis between untreated and SD208-treated cultures. (c) Approximately 3000 cells were removed from differentiating treatments at day 6 and NLK activity was assessed. Values were normalized to reflect a fold induction relative to untreated controls. (d) Lin-Kit+ hematopoietic progenitors were obtained from three mouse embryos expressing tetracycline-inducible shRNA against RPS19 at day E14.5 or three untreated mice, and thee mature RPL11^+/+ or three mature RPL11^+/lox mice treated with tamoxifen for eight weeks. Cells were grown in the presence or absence of doxycycline and/or SD208 for eight days prior to counting and assessing for ter119 surface expression. Values were expressed as a percentage relative to untreated controls (e) and directly comparing the effect of SD208 on erythropoiesis in ribosomal-insufficiency by expressing values relative to untreated ribosome-insufficient cultures (f). At day 5 approximately 3000 cells were assayed for NLK kinase assay (g). CD34+ HSPCs were isolated from three healthy control and three DBA patient mononuclear bone marrow aspirates by magnetic bead sorting and differentiated in the presence or absence of SD208 for 14 days. After counting the total cell population, the ratio of CD235+ erythroblasts was determined by flow cytometry and number of CD235+ erythroblasts calculated. This was expressed as a percentage of the average number of erythroid cells present in untreated healthy controls. (h) The direct effect of SD208 on erythroid expansion in DBA patient samples was calculated following normalization of untreated DBA patient samples as 1-fold, (i) At day five, 3000 cells from each of the differentiating cultures was analyzed for NLK activity by kinase assay and are expressed as a fold induction relative to untreated healthy controls.

CD11b+ myeloid cells = assay: CD11b+ myeloid expansion of differentiating human cord blood CD34+ progenitors; assay type: cell-based; settings: control (shLuc), exogenous TGFβ 5 ng/ml
Procedure: FIG. 7. SD208 increases erythroid expansion in human model of DBA through inhibition of NLK and not TGFβ. (a) Differentiating cord blood CD34+ progenitors were transduced with shRNA against luciferase or RPS19 and treated with inhibitors at working concentrations for TGFβ inhibition every three days. Cells were counted and CD235+ erythroid cells were assessed by flow cytometry after 15 days. (b) Prior to flow cytometry, 5000 cells per group were taken from differentiating cultures for NLK kinase assay. (c) CD34+ progenitors were transduced with shRNA against luciferase or RPS19 and non-targeting or siRNA against NLK. After sorting, samples were split into two groups and either treated with vehicle or SD208 every three days. After 15 days cells were counted and subject to flow cytometry to compare the expansion of maturing CD235+ erythroid (left panel) and CD11b+ myeloid cells (right panel). […] Cells were counted and CD235+ erythroid (D—upper) and CD11b+ myeloid cell (D—lower) percentages were determined by flow cytometry. The number of erythroid or myeloid cells is expressed as a percentage of the number of that lineage with no cytokine or drug treatment.
FIG. 9. […] Cells were counted and the percentage expressing CD235+ erythroid (left) and CD11b+ myeloid (right) was determined by flow cytometry. […] Values are expressed as a fold induction relative to untreated. (Panel C) Transduced and sorted CD34+ progenitors were cultured in methylcellulose in the presence or absence of metformin for 16 days and BFU-E erythroid (left) and CFU-GM myeloid (right) colonies scored. […] To directly compare the effect of metformin in each group, metformin-treated cultures were normalized to untreated cultures and are expressed as a fold induction of the untreated control. […]
Cells were incubated with human Fc receptor binding inhibitor (#14-9161-73; eBioscience) followed by primary antibodies CD235-APC (#306607; BioLegend) and CD11b-PE/Cy5 (#101209; BioLegend). Data were collected on a DxP10 flow cytometer (Cytek) and analyzed by using FlowJo Software, v.9.7.2.

## CC(=O)N[C@@H](CSC(=O)[C@]1([C@@H](O)C(C)C)NC(=O)[C@H](C)[C@@H]1O)C(=O)O [lactacystin]
c-Myb [1]; Kp53A1, 16 hours post p53 activation, lactacystin 10 μM, chloroquine 30 μM
  c-Myb protein levels: sustained
c-Myb [1]; Kp53A1, after p53 activation, up to 48 h
  c-Myb phosphorylation: sustained phosphorylation to 48 h

## CN[C@@H]1C[C@H]2O[C@@](C)([C@@H]1OC)n1c3ccccc3c3c4c(c5c6ccccc6n2c5c31)C(=O)NC4 [staurosporine]
c-Myb [2]; 1 µM
  c-Myb phosphorylation, fold increase relative to controls: 1.3 fold
c-Myb [2]; Kp53A1 lysate with elevated p53 activity, 1 μM staurosporine, 7.4-fold without inhibitor
  c-Myb ubiquitination, fold of control: 2.3 fold

## TGFβ: exogenous TGFβ (5 ng/ml)
CD235+ erythroblasts [3]
  additional reduction of erythroid expansion: 86%
CD235+ erythroblasts [4]
  reduction of erythroid progenitors: 85%
CD11b+ myeloid cells
  reduction of myeloid progenitors: 80%
